Measurements as given in BindingDB's records for doi:10.1016/s0960-894x(00)00062-7 (University of Bristol, 2000).
pIC50: −log10 of the molar value.

Assay: Inhibition of 3 nM [3H]clonidine binding to rat kidney membrane imidazoline receptor I-1 in presence of rauwolscine

N#CSc1ccc2oc(C3=NCCN3)cc2c1
pIC50: 5.09
